# Results as given in ChEMBL document CHEMBL4251601 (Eur J Med Chem, 2018).
# What was measured:
# [1] = target: Serine/threonine-protein kinase PAK 2 (Homo sapiens) (UniProt Q13177); assay: Inhibition of recombinant human full length GST-tagged PAK2 expressed in baculovirus expression system at 1 uM by Z'-Lyte assay relative to control
# [2] = target: STE20-like serine/threonine-protein kinase (Homo sapiens) (UniProt Q9H2G2); assay: Inhibition of recombinant human full length GST-tagged SLK expressed in baculovirus expression system at 0.1 uM by LanthaScreen assay relative to control
# [3] = target: Serine/threonine-protein kinase 26 (Homo sapiens) (UniProt Q9P289); assay: Inhibition of recombinant human full length GST-tagged MST4 expressed in baculovirus expression system at 1 uM by Z'-Lyte assay relative to control
# [4] = target: Epidermal growth factor receptor (Homo sapiens) (UniProt P00533); assay: Inhibition of recombinant human GST-tagged EGFR cytoplasmic domain expressed in baculovirus expression system at 0.1 uM by TR-FRET assay relative to control
# [5] = target: G protein-coupled receptor kinase 5 (Homo sapiens) (UniProt P34947); assay: Inhibition of recombinant human full length GST-tagged GRK5 expressed in baculovirus expression system at 1 uM by Z'-Lyte assay relative to control
# CDK6/cyclin D3 = CDK6/cyclin D3 (Homo sapiens, UniProt Q00534); assay: Inhibition of CDK6/Cyclin-D3 (unknown origin) using histoneH1 as substrate after 90 mins by ADP-Glo assay; format: protein-complex assay
# [6] = target: Platelet-derived growth factor receptor beta (Homo sapiens) (UniProt P09619); assay: Inhibition of recombinant human His-tagged PDGFRbeta cytoplasmic domain expressed in baculovirus expression system at 1 uM by Z'-Lyte assay relative to control
# [7] = target: Beta-adrenergic receptor kinase 1 (Homo sapiens) (UniProt P25098); assay: Inhibition of recombinant human full length His-tagged GRK2 expressed in baculovirus expression system at 1 uM by Z'-Lyte assay relative to control
# [8] = target: Leucine-rich repeat serine/threonine-protein kinase 2 (Homo sapiens) (UniProt Q5S007); assay: Inhibition of recombinant human GST-tagged LRRK2 (970 to 2527 residues) expressed in baculovirus expression system at 1 uM by TR-FRET assay relative to control
# U-87 MG = assay: Antitumor activity against luciferase-fused human U87MG cells orthotopically xenografted in nude mouse assessed as increase in mouse life span at 3.125 mg/kg, po qd for 5 weeks relative to control; format: functional, U-87MG ATCC; conditions: 840 h
# [9] = target: Beta-adrenergic receptor kinase 1 (Homo sapiens) (UniProt P25098); assay: Inhibition of recombinant human full length His-tagged GRK2 expressed in baculovirus expression system at 0.1 uM by Z'-Lyte assay relative to control
# [10] = target: Mitogen-activated protein kinase 1 (Homo sapiens) (UniProt P28482); assay: Inhibition of recombinant human full length GST-tagged ERK2 expressed in Escherichia coli at 1 uM by Z'-Lyte assay relative to control
# [11] = target: Insulin receptor (Homo sapiens) (UniProt P06213); assay: Inhibition of recombinant human GST-tagged INSR cytoplasmic domain expressed in baculovirus expression system at 1 uM by Z'-Lyte assay relative to control
# [12] = system: ALK tyrosine kinase receptor (Homo sapiens), Q9UM73 [L1196M]; assay: Inhibition of recombinant N-terminal GST-tagged human ALK cytoplasmic domain (1058 to 1620 residues) L1196M mutant expressed in baculovirus expression system at 1 uM by TR-FRET assay relative to control
# [13] = target: G protein-coupled receptor kinase 3 (Homo sapiens) (UniProt P35626); assay: Inhibition of recombinant human full length GST-tagged GRK3 expressed in baculovirus expression system at 0.1 uM by Z'-Lyte assay relative to control
# [14] = AUC (0 to 48 hrs) in CD-1 mouse brain at 10 mg/kg, po administered as single dose by LC-MS/MS analysis; format: ADME, organism-based; parameters: dose 10 mg/kg, time < 48 hr, route oral; conditions: in vivo
# [15] = system: Epidermal growth factor receptor (Homo sapiens), P00533 [L858R,T790M]; assay: Inhibition of recombinant human GST-tagged EGFR T790M/L858R double mutant expressed in baculovirus expression system at 1 uM by TR-FRET assay relative to control
# [16] = target: Mitogen-activated protein kinase kinase kinase 9 (Homo sapiens) (UniProt P80192); assay: Inhibition of recombinant human GST-tagged MLK1 expressed in baculovirus expression system at 0.1 uM by Z'-Lyte assay relative to control
# [17] = target: Receptor tyrosine-protein kinase erbB-2 (Homo sapiens) (UniProt P04626); assay: Inhibition of recombinant human His-tagged ERBB2 cytoplasmic domain expressed in baculovirus expression system at 0.1 uM by Z'-Lyte assay relative to control
# [18] = Half life in CD-1 mouse brain at 10 mg/kg, po administered as single dose by LC-MS/MS analysis; format: ADME, organism-based
# [19] = target: Tyrosine-protein kinase Lyn (Homo sapiens) (UniProt P07948); assay: Inhibition of recombinant human full length GST-tagged Lyn-A expressed in insect cells at 0.1 uM by Z'-Lyte assay relative to control
# [20] = target: G protein-coupled receptor kinase 6 (Homo sapiens) (UniProt P43250); assay: Inhibition of recombinant human full length GST-tagged GRK6 expressed in baculovirus expression system at 0.1 uM by Z'-Lyte assay relative to control
# [21] = target: Calcium/calmodulin-dependent protein kinase type II subunit beta (Homo sapiens) (UniProt Q13554); assay: Inhibition of recombinant full length human His-tagged CAMK2B expressed in baculovirus expression system at 0.1 uM by Z'-Lyte assay relative to control
# [22] = target: Serine/threonine-protein kinase PAK 4 (Homo sapiens) (UniProt O96013); assay: Inhibition of recombinant human GST-tagged PAK4 expressed in baculovirus expression system at 0.1 uM by Z'-Lyte assay relative to control
# [23] = AUC (0 to 48 hrs) in CD-1 mouse plasma at 10 mg/kg, po administered as single dose by LC-MS/MS analysis; format: ADME, organism-based; parameters: time < 48 hr, dose 10 mg/kg, route oral
# [24] = AUC (0 to infinity) in CD-1 mouse plasma at 10 mg/kg, po administered as single dose by LC-MS/MS analysis; format: ADME, organism-based; parameters: dose 10 mg/kg, time infinity, route oral
# [25] = target: Serine/threonine-protein kinase MRCK beta (Homo sapiens) (UniProt Q9Y5S2); assay: Inhibition of recombinant human His-tagged CDC42 BPB expressed in baculovirus expression system at 0.1 uM by Z'-Lyte assay relative to control
# [26] = AUC (0 to 24 hrs) in Sprague-Dawley rat at 5 mg/kg, po administered as single dose by LC-MS/MS analysis; format: ADME, organism-based; parameters: time < 24 hr, dose 5 mg/kg, route oral; conditions: in vivo
# [27] = target: Mitogen-activated protein kinase 8 (Homo sapiens) (UniProt P45983); assay: Inhibition of recombinant human full length His-tagged JNK1 expressed in baculovirus expression system at 0.1 uM by Z'-Lyte assay relative to control
# [28] = target: Tyrosine-protein kinase JAK3 (Homo sapiens, UniProt P52333); assay: Inhibition of recombinant human GST-tagged JAK3 cytoplasmic domain (781 to 1124 residues) expressed in baculovirus expression system using ULight-JAK-1 peptide as substrate preincubated for 15 mins followed by ATP addition measured after 90 mins
# [29] = target: G protein-coupled receptor kinase 6 (Homo sapiens) (UniProt P43250); assay: Inhibition of recombinant human full length GST-tagged GRK6 expressed in baculovirus expression system at 1 uM by Z'-Lyte assay relative to control
# Chain of G protein-coupled receptor kinase 6 (Homo sapiens) (P43250 whole entry, looked up): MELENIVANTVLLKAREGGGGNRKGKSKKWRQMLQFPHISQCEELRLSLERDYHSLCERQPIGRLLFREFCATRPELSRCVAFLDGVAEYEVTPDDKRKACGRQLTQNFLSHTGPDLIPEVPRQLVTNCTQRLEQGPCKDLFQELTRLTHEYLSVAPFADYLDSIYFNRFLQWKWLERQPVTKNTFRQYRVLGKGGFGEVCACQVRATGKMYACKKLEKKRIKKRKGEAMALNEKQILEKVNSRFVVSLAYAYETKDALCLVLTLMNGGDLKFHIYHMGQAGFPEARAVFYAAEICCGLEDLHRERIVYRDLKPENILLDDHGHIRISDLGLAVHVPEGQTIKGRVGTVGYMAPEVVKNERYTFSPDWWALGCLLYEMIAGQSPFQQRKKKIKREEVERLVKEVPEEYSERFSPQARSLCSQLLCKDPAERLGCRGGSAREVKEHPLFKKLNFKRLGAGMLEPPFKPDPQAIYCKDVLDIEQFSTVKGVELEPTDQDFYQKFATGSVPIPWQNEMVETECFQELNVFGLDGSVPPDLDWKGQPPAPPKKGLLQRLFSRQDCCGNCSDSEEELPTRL
# Chain of Beta-adrenergic receptor kinase 1 (Homo sapiens) (P25098 whole entry, the tested form may be a part): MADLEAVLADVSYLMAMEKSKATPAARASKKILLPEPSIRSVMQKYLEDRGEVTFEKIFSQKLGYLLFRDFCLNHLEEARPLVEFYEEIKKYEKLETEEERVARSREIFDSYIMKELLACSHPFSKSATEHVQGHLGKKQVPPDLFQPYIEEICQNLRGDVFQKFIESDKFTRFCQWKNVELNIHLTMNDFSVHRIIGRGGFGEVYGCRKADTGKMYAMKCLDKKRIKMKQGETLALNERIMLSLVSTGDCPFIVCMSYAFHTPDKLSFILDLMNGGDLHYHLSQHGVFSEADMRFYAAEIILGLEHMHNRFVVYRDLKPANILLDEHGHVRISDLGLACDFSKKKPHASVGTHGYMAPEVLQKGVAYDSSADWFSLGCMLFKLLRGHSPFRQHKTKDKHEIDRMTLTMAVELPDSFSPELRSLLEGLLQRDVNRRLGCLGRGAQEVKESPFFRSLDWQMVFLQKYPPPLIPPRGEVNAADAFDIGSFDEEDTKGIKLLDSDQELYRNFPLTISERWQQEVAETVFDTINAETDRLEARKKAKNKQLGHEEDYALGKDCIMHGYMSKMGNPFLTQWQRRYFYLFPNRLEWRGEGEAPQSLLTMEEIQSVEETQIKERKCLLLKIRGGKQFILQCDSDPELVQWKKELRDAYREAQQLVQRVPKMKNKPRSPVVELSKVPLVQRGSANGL
# Chain of Receptor tyrosine-protein kinase erbB-2 (Homo sapiens) (P04626 whole entry, the tested form may be a part): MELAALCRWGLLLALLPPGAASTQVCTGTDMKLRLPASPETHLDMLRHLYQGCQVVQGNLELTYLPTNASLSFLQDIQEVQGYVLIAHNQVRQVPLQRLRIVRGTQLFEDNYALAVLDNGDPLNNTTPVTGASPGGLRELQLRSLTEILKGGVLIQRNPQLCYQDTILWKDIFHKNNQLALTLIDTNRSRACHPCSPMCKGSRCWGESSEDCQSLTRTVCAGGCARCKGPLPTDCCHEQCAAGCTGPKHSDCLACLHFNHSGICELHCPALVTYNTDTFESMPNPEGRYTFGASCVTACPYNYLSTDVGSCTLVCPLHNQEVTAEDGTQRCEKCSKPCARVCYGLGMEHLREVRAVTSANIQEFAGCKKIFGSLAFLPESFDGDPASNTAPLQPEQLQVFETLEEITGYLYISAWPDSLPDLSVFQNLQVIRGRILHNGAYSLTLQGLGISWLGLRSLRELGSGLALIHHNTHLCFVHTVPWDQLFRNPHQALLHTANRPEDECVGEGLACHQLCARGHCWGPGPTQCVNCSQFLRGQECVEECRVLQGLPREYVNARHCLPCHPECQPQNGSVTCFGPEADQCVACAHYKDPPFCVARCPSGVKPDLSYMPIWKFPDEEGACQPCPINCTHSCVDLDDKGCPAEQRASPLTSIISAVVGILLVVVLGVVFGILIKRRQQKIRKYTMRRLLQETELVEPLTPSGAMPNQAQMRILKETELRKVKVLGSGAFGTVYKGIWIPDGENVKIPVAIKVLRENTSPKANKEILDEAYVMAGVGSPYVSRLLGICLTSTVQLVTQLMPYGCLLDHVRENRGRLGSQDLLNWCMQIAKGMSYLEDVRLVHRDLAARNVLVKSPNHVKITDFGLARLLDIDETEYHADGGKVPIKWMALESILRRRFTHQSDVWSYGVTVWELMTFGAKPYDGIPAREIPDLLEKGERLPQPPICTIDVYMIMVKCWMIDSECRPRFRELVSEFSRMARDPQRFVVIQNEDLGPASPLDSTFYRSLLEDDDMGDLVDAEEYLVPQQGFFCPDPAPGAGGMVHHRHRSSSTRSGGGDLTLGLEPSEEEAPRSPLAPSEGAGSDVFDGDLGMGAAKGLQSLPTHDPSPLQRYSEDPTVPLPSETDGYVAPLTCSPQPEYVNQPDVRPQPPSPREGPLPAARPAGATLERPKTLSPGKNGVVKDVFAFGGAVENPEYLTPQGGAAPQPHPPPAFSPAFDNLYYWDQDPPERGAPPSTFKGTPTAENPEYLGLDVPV
# Chain of Mitogen-activated protein kinase kinase kinase 9 (Homo sapiens) (P80192 whole entry, looked up, the tested form may be a part): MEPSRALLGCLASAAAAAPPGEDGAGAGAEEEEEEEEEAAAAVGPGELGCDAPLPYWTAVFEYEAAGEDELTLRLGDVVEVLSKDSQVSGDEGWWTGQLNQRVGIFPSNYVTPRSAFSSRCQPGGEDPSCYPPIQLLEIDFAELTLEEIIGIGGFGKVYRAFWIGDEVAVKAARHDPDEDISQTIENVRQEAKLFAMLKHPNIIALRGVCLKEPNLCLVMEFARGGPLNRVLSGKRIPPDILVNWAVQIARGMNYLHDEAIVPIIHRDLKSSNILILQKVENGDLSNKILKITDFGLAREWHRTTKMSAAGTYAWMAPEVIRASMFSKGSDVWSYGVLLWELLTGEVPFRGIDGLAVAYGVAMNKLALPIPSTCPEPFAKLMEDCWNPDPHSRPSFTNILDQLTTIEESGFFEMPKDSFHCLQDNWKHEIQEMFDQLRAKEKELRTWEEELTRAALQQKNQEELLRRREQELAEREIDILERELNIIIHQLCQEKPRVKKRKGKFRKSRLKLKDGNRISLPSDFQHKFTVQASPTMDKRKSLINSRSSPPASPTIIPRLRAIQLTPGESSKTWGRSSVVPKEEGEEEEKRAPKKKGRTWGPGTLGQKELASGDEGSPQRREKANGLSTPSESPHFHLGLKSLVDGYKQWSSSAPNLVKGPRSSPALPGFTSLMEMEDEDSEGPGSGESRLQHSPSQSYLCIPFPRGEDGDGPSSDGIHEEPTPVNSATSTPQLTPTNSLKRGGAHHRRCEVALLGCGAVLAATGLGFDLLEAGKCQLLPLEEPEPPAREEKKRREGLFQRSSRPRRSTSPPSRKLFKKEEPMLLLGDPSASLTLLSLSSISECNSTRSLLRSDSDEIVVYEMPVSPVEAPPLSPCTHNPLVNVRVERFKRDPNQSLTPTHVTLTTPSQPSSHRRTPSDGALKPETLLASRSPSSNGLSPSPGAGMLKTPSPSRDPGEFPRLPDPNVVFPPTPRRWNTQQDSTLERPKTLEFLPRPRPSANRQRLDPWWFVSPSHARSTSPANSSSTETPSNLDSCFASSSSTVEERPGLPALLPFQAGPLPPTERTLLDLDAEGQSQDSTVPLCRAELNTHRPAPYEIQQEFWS
# Chain of CDK6/cyclin D3 (P30281 whole entry, the tested form may be a part): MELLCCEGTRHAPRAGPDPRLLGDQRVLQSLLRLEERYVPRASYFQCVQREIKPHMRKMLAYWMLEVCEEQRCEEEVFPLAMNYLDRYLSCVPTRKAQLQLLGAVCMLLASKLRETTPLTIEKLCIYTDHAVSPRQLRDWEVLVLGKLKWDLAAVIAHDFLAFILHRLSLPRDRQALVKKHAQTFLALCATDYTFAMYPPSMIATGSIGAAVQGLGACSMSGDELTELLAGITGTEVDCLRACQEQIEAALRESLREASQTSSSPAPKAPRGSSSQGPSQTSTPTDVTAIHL
# Chain of CDK6/cyclin D3 (Q00534 whole entry, the tested form may be a part): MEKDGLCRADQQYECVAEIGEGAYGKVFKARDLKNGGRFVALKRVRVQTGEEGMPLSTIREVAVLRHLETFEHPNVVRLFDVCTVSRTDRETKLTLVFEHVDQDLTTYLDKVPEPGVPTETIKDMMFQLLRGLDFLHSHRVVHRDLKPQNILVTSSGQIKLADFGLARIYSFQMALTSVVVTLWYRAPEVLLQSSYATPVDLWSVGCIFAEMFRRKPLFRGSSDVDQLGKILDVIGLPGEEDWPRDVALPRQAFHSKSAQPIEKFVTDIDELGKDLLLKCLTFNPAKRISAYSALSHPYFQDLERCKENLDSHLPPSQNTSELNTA
# Chain of G protein-coupled receptor kinase 3 (Homo sapiens) (P35626 whole entry): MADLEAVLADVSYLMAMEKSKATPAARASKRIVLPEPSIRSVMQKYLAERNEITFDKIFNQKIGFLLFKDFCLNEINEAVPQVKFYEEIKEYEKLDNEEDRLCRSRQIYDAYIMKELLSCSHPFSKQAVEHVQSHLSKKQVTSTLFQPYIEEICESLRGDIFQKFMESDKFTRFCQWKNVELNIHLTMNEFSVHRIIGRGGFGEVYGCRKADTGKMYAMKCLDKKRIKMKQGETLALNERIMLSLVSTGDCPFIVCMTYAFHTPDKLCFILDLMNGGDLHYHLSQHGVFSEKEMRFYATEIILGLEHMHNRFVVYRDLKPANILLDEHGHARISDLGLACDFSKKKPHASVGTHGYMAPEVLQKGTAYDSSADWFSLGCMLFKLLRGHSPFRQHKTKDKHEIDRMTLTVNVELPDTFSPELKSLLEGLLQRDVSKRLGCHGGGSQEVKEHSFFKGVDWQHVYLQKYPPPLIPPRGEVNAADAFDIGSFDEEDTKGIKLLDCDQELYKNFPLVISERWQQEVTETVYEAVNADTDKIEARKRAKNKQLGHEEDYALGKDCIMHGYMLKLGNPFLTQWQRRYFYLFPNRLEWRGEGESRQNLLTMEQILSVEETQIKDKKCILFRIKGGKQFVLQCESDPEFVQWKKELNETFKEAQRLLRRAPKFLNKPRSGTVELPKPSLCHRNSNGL
smiles,measurement,setting,value
CC1=Nc2c(F)cc(-c3nc(Nc4ccc(C5CCN(C)CC5)cn4)ncc3F)cc2C12CCCC2 [CROZBACICLIB],inhibition,[1],10%
same,inhibition,[2],11%
same,inhibition,[3],-1%
same,inhibition,[4],-5%
same,inhibition,[5],1%
same,IC50,CDK6/cyclin D3,1 nM
same,inhibition,[6],20%
same,inhibition,[7],-1%
same,inhibition,[8],34%
same,ILS at 3.125 mg/kg,U-87 MG,28%
same,inhibition,[9],-2%
same,inhibition,[10],5%
same,inhibition,[11],12%
same,inhibition,[12],34%
same,inhibition,[13],-7%
same,AUC,[14],37178 ng·h/g
same,inhibition,[15],79%
same,inhibition,[16],0%
same,inhibition,[17],1%
same,half-life,[18],6.38 h
same,inhibition,[19],0%
same,inhibition,[20],-4%
same,inhibition,[21],25%
same,inhibition,[22],4%
same,AUC(0-t) at 48 h,[23],9060 ng·h/mL
same,AUC(0-inf),[24],9110 ng·h/mL
same,inhibition,[25],15%
same,AUC(0-t) at 24 h,[26],1530 ng·h/mL
same,inhibition,[27],6%
same,IC50,[28],154 nM
same,inhibition,[29],4%
